These results are taken from patent publication US6924309B2 (Children, Youth and Women's Health Service Incorporated, priority 1999, dated 2005).

Assay [1] has as its system Plasmodium falciparum isolates 3D7, FC27, K+. Nature of the assay: Radiometric (3H-hypoxanthine) assay on asexual blood stages of P. falciparum. Format: cell-based. The method, boiled down: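 Isolates grown in human O+ erythrocytes with 10% AB serum at 37 °C; cultures at 1×10^8 erythrocytes/ml were exposed to the fatty acids for 4 h, then pulsed with 3H-hypoxanthine for a further 18 h. Incorporated radioactivity was counted and expressed as % growth inhibition versus diluent-treated cultures.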

Assay [2] deals with T1, 12-LO (Sus scrofa, UniProt P16469).
T1 construct: purchased Cayman Chemical Company
T1 sequence (P16469 1-663): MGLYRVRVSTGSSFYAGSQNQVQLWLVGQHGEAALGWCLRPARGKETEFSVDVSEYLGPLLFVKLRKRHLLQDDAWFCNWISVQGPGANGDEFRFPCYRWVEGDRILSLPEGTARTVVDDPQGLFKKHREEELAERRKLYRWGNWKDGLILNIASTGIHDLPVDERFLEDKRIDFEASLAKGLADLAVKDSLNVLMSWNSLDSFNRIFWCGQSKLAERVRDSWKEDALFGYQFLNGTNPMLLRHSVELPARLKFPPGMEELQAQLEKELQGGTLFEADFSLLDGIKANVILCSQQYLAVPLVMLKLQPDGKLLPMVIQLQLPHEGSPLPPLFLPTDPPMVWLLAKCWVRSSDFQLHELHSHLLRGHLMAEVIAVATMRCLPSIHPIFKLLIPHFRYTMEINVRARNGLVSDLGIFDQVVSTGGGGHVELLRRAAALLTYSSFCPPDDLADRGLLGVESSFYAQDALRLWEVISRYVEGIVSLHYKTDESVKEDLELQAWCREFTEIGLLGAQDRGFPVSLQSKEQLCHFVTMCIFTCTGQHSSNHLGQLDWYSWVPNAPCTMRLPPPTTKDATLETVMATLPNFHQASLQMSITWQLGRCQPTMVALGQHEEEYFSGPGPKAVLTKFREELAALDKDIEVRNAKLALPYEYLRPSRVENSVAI
Nature of the assay: Effect on 12-LO catalysed oxidation of arachidonic acid. It is filed as biochemical, porcine.

The subject of assay [3] is human neutrophils. Nature of the assay: AA-enhanced chemiluminescence in human neutrophils. Conditions: neutrophils pretreated with compound. Format: cell-based. The method, then:
Arachidonic acid (AA) is a natural agonist which stimulates oxygen radical production in neutrophils leading to tissue damage during inflammation. Studies were conducted to examine whether or not the Lx compounds could antagonise the effects of AA. Neutrophils were pretreated with Lx compounds and then examined for chemiluminescence response to AA addition. […] The effect of Lx compounds on AA-enhanced chemiluminescence in human neutrophils is shown graphically in FIG. 11.

For assay [4], the system named is human neutrophils. Nature of the assay: Neutrophil lucigenin dependent chemiluminescence (superoxide production). Format: cell-based. To be noted: 20 μM. The method, then: The activation of human neutrophils by nitro compounds was assessed by the ability to stimulate superoxide production (chemiluminescence response) and release of lysosomal enzymes from specific and azurophilic granules. Neutrophils were prepared from whole blood taken from normal healthy volunteers by the rapid-single step procedure^(41). Briefly, blood anticoagulated with heparin was carefully layered on a hypaque-ficoll medium of 1.114 g/ml and centrifuged in swing-out-buckets at 200 g/30 min. The leukocytes were resolved into two bands and the erythrocytes sedimented at the bottom of the tube. The second leukocyte band approximately 0.7 cm from the mononuclear cell containing band at the interface contained neutrophils of >98% purity and >99% viability (trypan blue dye exclusion criteria). The neutrophils were carefully harvested with a pasteur pipette, and washed and resuspended in tissue culture medium. The respiratory burst response of neutrophils was assessed by measuring superoxide production by the lucigenin dependent chemiluminescence assay essentially as described previously^(42). Briefly, 1×10^6 neutrophils (100 μl) in HBSS were treated with the nitro analogues of fatty acids (100 μl), then lucigenin was added and the volume made up. FIG. 7 illustrates the effects of Lx compounds on the neutrophil chemiluminescence reponse. Results are the means ±SEM of 4-12 experiments. […]

Assay [5] deals with T1, 12-LO. Put plainly: 12-LO catalysed oxidation of the nitro compounds (substrate test). Format: biochemical, porcine. Conditions: pH 7.4 buffer, UV 234 nm. The procedure:
Based on this consideration, 5-LO, 12-LO and 15-LO catalysed oxidation of the nitro compounds (4a, 4b, 6a, 6b, 8a and 8b) was investigated. Each of the nitro compounds was treated with 15-LO in pH 9.0 buffer (or 5-LO in pH 6.3 buffer and 12-LO in pH 7.4 buffer), and the formation of 15-hydroperoxy derivatives (or 5-hydroperoxy or 12-hydroperoxy derivatives) over time was monitored by UV spectroscopy at 234 nm.

Each structure is given as a SMILES string.

Take `CCCCC/C=C\C/C=C\C/C=C\C/C=C\CCCC(CCC(=O)O)[N+](=O)[O-]` (stereo not drawn) [Lx7, (a11-Z)-4-Nitrotricosa-8,11,14,17-tetraenoic acid]: the “Antimalarial activity (in words)” value in assay [1] is “did not have appreciable antimalarial activity”. Further, the “Effect on 12-LO catalysed oxidation of AA” value at 12-LO [2] was “Substrate”. In addition, the “Inhibition of AA-stimulated oxygen radical production (chemiluminescence)” value in the assay with human neutrophils [3] was “particularly evident”. Further, the Neutrophil chemiluminescence response entry with human neutrophils [4] was “marginal compared to 20:4n-6 and 22:6n-3”. Besides, the entries for the “Substrate for 12-LO” value at 12-LO [5] (listed as 6b) and at 12-LO [5] (listed as (all-Z)-4-nitrotricosa-8,11,14,17-tetraenoic acid) were “substrate” and “good substrate”, respectively.
